Measurements taken from patent US9687479B2, “Multisubstituted aromatic compounds as serine protease inhibitors” (VERSEON CORPORATION, priority 2013, dated 2017).

Molecular target: Human thrombin (Homo sapiens (Human), UniProt P00734)
Assay: Thrombin protease activity inhibition assay (chromogenic substrate S-2238)
Type: biochemical
Settings: 3 nM thrombin, 125 μM S-2238, 10 min pre-incubation, RT
Protocol: The thrombin activity reported herein (e.g., Table A) was obtained as follows. […] Thrombin was assayed in buffer containing 0.05 M Tris (pH 7.4), 0.015 M NaCl and 0.01% PEG-8000. The final concentration of enzyme used was 3 nM thrombin. […] All assays were performed in 96-well microtiter plates at room temperature (RT). […] Inhibitor IC50 values were determined by adding test compound as ten point, three-fold serial dilutions in buffer solution, as known in the art. The plate was read at 10 minutes after substrate addition. The IC50 was calculated by plotting the percent (%) inhibition against compound concentration and fitting the data to a constrained four parameter sigmoidal curve, as known in the art.

Row | IC50 | Structure (SMILES)
1 | < 0.1 µM | O=C(c1ccco1)n1nc(-c2cccn(Cc3ccncc3)c2=O)cc1NCc1ccc(Cl)s1 [Cmpd 166, 3-(5-[(5-chlorothiophen-2-yl)methyl]amino-1-[(furan-2-yl)carbonyl]-1H-pyrazol-3-yl)-1-(pyridin-4-ylmethyl)-1,2-dihydropyridin-2-one]
2 | < 0.1 µM | CC1(C(=O)n2nc(-c3cccn(Cc4ccsc4)c3=O)cc2NCc2ccc(Cl)s2)CCOCC1 [Cmpd 158, 3-(5-[(5-chlorothiophen-2-yl)methyl]amino-1-[(4-methyloxan-4-yl)carbonyl]-1H-pyrazol-3-yl)-1-(thiophen-3-ylmethyl)-1,2-dihydropyridin-2-one]
3 | < 0.1 µM | O=C(c1cccc2c1OCCO2)n1nc(-c2cccn(Cc3ccncc3)c2=O)cc1NCc1ccc(Cl)s1 [Cmpd 115, 3-(5-[(5-chlorothiophen-2-yl)methyl]amino-1-[(2,3-dihydro-1,4-benzodioxin-5-yl)carbonyl]-1H-pyrazol-3-yl)-1-(pyridin-4-ylmethyl)-1,2-dihydropyridin-2-one]
4 | < 0.1 µM | Cn1cccc(-c2cc(NCc3ccc(Cl)s3)n(C(=O)c3cccc4c3OCCO4)n2)c1=O [Cmpd 120, 3-(5-[(5-chlorothiophen-2-yl)methyl]amino-1-[(2,3-dihydro-1,4-benzodioxin-5-yl)carbonyl]-1H-pyrazol-3-yl)-1-methyl-1,2-dihydropyridin-2-one]
5 | < 0.1 µM | O=C(c1ccccc1Cl)n1nc(-c2cccn(Cc3ccccn3)c2=O)cc1NCc1ccc(Cl)s1 [Cmpd 246, 3-1-[(2-chlorophenyl)carbonyl]-5-[(5-chlorothiophen-2-yl)methyl]amino-1H-pyrazol-3-yl-1-(pyridin-2-ylmethyl)-1,2-dihydropyridin-2-one]
6 | < 0.1 µM | COc1ccccc1C(=O)n1nc(-c2cccn(Cc3ccccn3)c2=O)cc1NCc1ccc(Cl)s1 [Cmpd 139, 3-(5-[(5-chlorothiophen-2-yl)methyl]amino-1-[(2-methoxyphenyl)carbonyl]-1H-pyrazol-3-yl)-1-(pyridin-2-ylmethyl)-1,2-dihydropyridin-2-one]
7 | < 0.1 µM | O=C(c1ccc(N2CCOCC2)cc1)n1nc(-c2cccn(Cc3ccccn3)c2=O)cc1NCc1ccc(Cl)s1 [Cmpd 212, 3-(5-[(5-chlorothiophen-2-yl)methyl]amino-1-[4-(morpholin-4-yl)phenyl]carbonyl-1H-pyrazol-3-yl)-1-(pyridin-2-ylmethyl)-1,2-dihydropyridin-2-one]
8 | < 0.1 µM | O=C(c1ccsc1)n1nc(-c2cccn(Cc3cccs3)c2=O)cc1NCc1ccc(Cl)s1 [Cmpd 202, 3-(5-[(5-chlorothiophen-2-yl)methyl]amino-1-[(thiophen-3-yl)carbonyl]-1H-pyrazol-3-yl)-1-(thiophen-2-ylmethyl)-1,2-dihydropyridin-2-one]
9 | < 0.1 µM | O=C(c1ccoc1)n1nc(-c2cccn(Cc3cccc(Cl)c3)c2=O)cc1NCc1ccc(Cl)s1 [Cmpd 33, 1-[(3-chlorophenyl)methyl]-3-(5-[(5-chlorothiophen-2-yl)methyl]amino-1-[(furan-3-yl)carbonyl]-1H-pyrazol-3-yl)-1,2-dihydropyridin-2-one]
10 | < 0.1 µM | CC(C)(C)C(=O)n1nc(-c2cccn(CC(=O)N3CCOCC3)c2=O)cc1NCc1ccc(Cl)s1 [Cmpd 88, 3-(5-[(5-chlorothiophen-2-yl)methyl]amino-1-(2,2-dimethylpropanoyl)-1H-pyrazol-3-yl)-1-[2-(morpholin-4-yl)-2-oxoethyl]-1,2-dihydropyridin-2-one]
11 | < 0.1 µM | O=C(Cn1cccc(-c2cc(NCc3ccc(Cl)s3)n(C(=O)c3ccoc3)n2)c1=O)N1CCOCC1 [Cmpd 180, 3-(5-[(5-chlorothiophen-2-yl)methyl]amino-1-[(furan-3-yl)carbonyl]-1H-pyrazol-3-yl)-1-[2-(morpholin-4-yl)-2-oxoethyl]-1,2-dihydropyridin-2-one]
12 | 1 to 10 µM | O=c1c(-c2cc(NCc3ccc(Cl)s3)n[nH]2)cccn1Cc1cccnc1 [Cmpd 228, 3-(5-[(5-chlorothiophen-2-yl)methyl]amino-1H-pyrazol-3-yl)-1-(pyridin-3-ylmethyl)-1,2-dihydropyridin-2-one]
13 | 0.1 to 1 µM | Cn1cccc(-c2cc(NCc3ccc(Cl)s3)n(C(=O)C3(C)COC3)n2)c1=O [Cmpd 148, 3-(5-[(5-chlorothiophen-2-yl)methyl]amino-1-[(3-methyloxetan-3-yl)carbonyl]-1H-pyrazol-3-yl)-1-methyl-1,2-dihydropyridin-2-one]
14 | < 0.1 µM | O=C(c1ccc(N2CCOCC2)cc1)n1nc(-c2ccc[nH]c2=O)cc1NCc1ccc(Cl)s1 [Cmpd 207, 3-(5-[(5-chlorothiophen-2-yl)methyl]amino-1-[4-(morpholin-4-yl)phenyl]carbonyl-1H-pyrazol-3-yl)-1,2-dihydropyridin-2-one]
15 | < 0.1 µM | CC1(C(=O)n2nc(-c3cccn(Cc4ccco4)c3=O)cc2NCc2ccc(Cl)s2)CCOCC1 [Cmpd 150, 3-(5-[(5-chlorothiophen-2-yl)methyl]amino-1-[(4-methyloxan-4-yl)carbonyl]-1H-pyrazol-3-yl)-1-(furan-2-ylmethyl)-1,2-dihydropyridin-2-one]
16 | < 0.1 µM | O=C(c1ccco1)n1nc(-c2cccn(Cc3ccccn3)c2=O)cc1NCc1ccc(Cl)s1 [Cmpd 164, 3-(5-[(5-chlorothiophen-2-yl)methyl]amino-1-[(furan-2-yl)carbonyl]-1H-pyrazol-3-yl)-1-(pyridin-2-ylmethyl)-1,2-dihydropyridin-2-one]
17 | < 0.1 µM | O=C(c1cccc2c1OCCO2)n1nc(-c2ccc[nH]c2=O)cc1NCc1ccc(Cl)s1 [Cmpd 108, 3-(5-[(5-chlorothiophen-2-yl)methyl]amino-1-[(2,3-dihydro-1,4-benzodioxin-5-yl)carbonyl]-1H-pyrazol-3-yl)-1,2-dihydropyridin-2-one]
18 | < 0.1 µM | O=C(c1ccco1)n1nc(-c2cccn(Cc3cccs3)c2=O)cc1NCc1ccc(Cl)s1 [Cmpd 168, 3-(5-[(5-chlorothiophen-2-yl)methyl]amino-1-[(furan-2-yl)carbonyl]-1H-pyrazol-3-yl)-1-(thiophen-2-ylmethyl)-1,2-dihydropyridin-2-one]
19 | 10 to 100 µM | N#CCn1cccc(-c2cc(NCc3ccc(Cl)s3)[nH]n2)c1=O [Cmpd 60, 2-[3-(5-[(5-chlorothiophen-2-yl)methyl]amino-1H-pyrazol-3-yl)-2-oxo-1,2-dihydropyridin-1-yl]acetonitrile]
20 | < 0.1 µM | COc1ccccc1C(=O)n1nc(-c2cccn(Cc3ccc(Cl)cc3)c2=O)cc1NCc1ccc(Cl)s1 [Cmpd 36, 1-[(4-chlorophenyl)methyl]-3-(5-[(5-chlorothiophen-2-yl)methyl]amino-1-[(2-methoxyphenyl)carbonyl]-1H-pyrazol-3-yl)-1,2-dihydropyridin-2-one]
21 | < 0.1 µM | O=C(c1ccsc1)n1nc(-c2cccn(Cc3cccnn3)c2=O)cc1NCc1ccc(Cl)s1 [Cmpd 197, 3-(5-[(5-chlorothiophen-2-yl)methyl]amino-1-[(thiophen-3-yl)carbonyl]-1H-pyrazol-3-yl)-1-(pyridazin-3-ylmethyl)-1,2-dihydropyridin-2-one]
22 | < 0.1 µM | O=C(c1ccccc1)n1nc(-c2cccn(Cc3ncccn3)c2=O)cc1NCc1ccc(Cl)s1 [Cmpd 69, 3-(1-benzoyl-5-[(5-chlorothiophen-2-yl)methyl]amino-1H-pyrazol-3-yl)-1-(pyrimidin-2-ylmethyl)-1,2-dihydropyridin-2-one]
23 | < 0.1 µM | O=C(c1ccoc1)n1nc(-c2cccn(CCc3ccccc3)c2=O)cc1NCc1ccc(Cl)s1 [Cmpd 172, 3-(5-[(5-chlorothiophen-2-yl)methyl]amino-1-[(furan-3-yl)carbonyl]-1H-pyrazol-3-yl)-1-(2-phenylethyl)-1,2-dihydropyridin-2-one]
24 | > 100 µM | O=c1c(-c2cc(NCc3ccc(Cl)s3)[nH]n2)cccn1Cc1ccco1 [Cmpd 222, 3-(5-[(5-chlorothiophen-2-yl)methyl]amino-1H-pyrazol-3-yl)-1-(furan-2-ylmethyl)-1,2-dihydropyridin-2-one]
25 | 1 to 10 µM | O=c1c(-c2cc(NCc3ccc(Cl)s3)[nH]n2)cccn1Cc1cccc(Cl)c1 [Cmpd 34, 1-[(3-chlorophenyl)methyl]-3-(5-[(5-chlorothiophen-2-yl)methyl]amino-1H-pyrazol-3-yl)-1,2-dihydropyridin-2-one]
26 | < 0.1 µM | O=C(c1ccccc1)n1nc(-c2cccn(Cc3ccccn3)c2=O)cc1NCc1ccc(Cl)s1 [Cmpd 66, 3-(1-benzoyl-5-[(5-chlorothiophen-2-yl)methyl]amino-1H-pyrazol-3-yl)-1-(pyridin-2-ylmethyl)-1,2-dihydropyridin-2-one]
27 | > 100 µM | O=C(c1ccccc1)n1nc(-c2cccn(Cc3ccncc3)c2=O)cc1NCc1ccc(Cl)s1 [Cmpd 68, 3-(1-benzoyl-5-[(5-chlorothiophen-2-yl)methyl]amino-1H-pyrazol-3-yl)-1-(pyridin-4-ylmethyl)-1,2-dihydropyridin-2-one]
28 | < 0.1 µM | COc1ccccc1C(=O)n1nc(-c2cccn(Cc3ccc4ccccc4c3)c2=O)cc1NCc1ccc(Cl)s1 [Cmpd 137, 3-(5-[(5-chlorothiophen-2-yl)methyl]amino-1-[(2-methoxyphenyl)carbonyl]-1H-pyrazol-3-yl)-1-(naphthalen-2-ylmethyl)-1,2-dihydropyridin-2-one]
29 | < 0.1 µM | O=C(c1ccccc1)n1nc(-c2cccn(Cc3ccco3)c2=O)cc1NCc1ccc(Cl)s1 [Cmpd 63, 3-(1-benzoyl-5-[(5-chlorothiophen-2-yl)methyl]amino-1H-pyrazol-3-yl)-1-(furan-2-ylmethyl)-1,2-dihydropyridin-2-one]
30 | < 0.1 µM | CC(C)(C)C(=O)n1nc(-c2cccn(Cc3cccc4ccccc34)c2=O)cc1NCc1ccc(Cl)s1 [Cmpd 79, 3-(5-[(5-chlorothiophen-2-yl)methyl]amino-1-(2,2-dimethylpropanoyl)-1H-pyrazol-3-yl)-1-(naphthalen-1-ylmethyl)-1,2-dihydropyridin-2-one]
